Values quoted from earlier work as cited in patent US20220313684A1, “PHARMACEUTICAL COMPOSITION COMPRISING IRINOTECAN FREE BASE FOR ORAL ADMINISTRATION” (DAE HWA PHARMA. CO., LTD., priority 2019, published 2022).

Conditions: oral administration of irinotecan; reported (EP 2328557)

bioavailability upon oral administration: 9%
SMILES: CCc1c2c(nc3ccc(OC(=O)N4CCC(N5CCCCC5)CC4)cc13)-c1cc3c(c(=O)n1C2)COC(=O)[C@]3(O)CC [irinotecan, (S)-4,11-diethyl-3,4,12,14-tetrahydro-4-hydroxy-3,14-dioxo-1H-pyrano[3′,4′:6,7]-indolizino[1,2-b]quinolin-9-yl [1,4′bipiperidine]-1′-carboxylate]
